Data from patent US7919481B2, “Inositol pyrophosphates, and methods of use thereof” (NormOxys, Inc., priority 2002, dated 2011).
Several values for one entry are separate records, joined by “and”; a condition that tells them apart may be missing. Equal entries are not always repeated. Entries after “also recorded” stand apart in the source; their conditions may differ.

Columns and labels:
[1] = system: RBC; assay: Blood counts of orally treated mice; format: in vivo, C57BL/6 mice; conditions: day 10, single mice; oral 27 mM for 4 days
[2] = system: circulating RBC; assay: Oral administration in drinking water, P50 of circulating RBC; format: in vivo, C57BL/6 mice; conditions: for P50 10 d %: P50 shift on day 10, single mice
[3] = system: human RBCs; conditions: IHP encapsulated in human RBCs by continuous-flow electroporation; cited from earlier work
[4] = constant concentration 22 mM, human serum/1-octanol; cited from earlier work
[5] = system: RBC; assay: Blood counts of orally treated mice; format: in vivo, C57BL/6 mice; conditions: for RBC × 10^6/mm3: day 7, single mice, oral 27 mM for 4 days
From the text: Blood from mice, having ingested kf111 or IHP in water (for 4 days) or water only was collected on day 0, 7 and 11, in order to assess any differences in the blood count (and the amount of erythropoietin in the sera) of treated and control mice. […] Erythropoietin assays in all mice sera will be reported soon.

[6] = system: piglets; assay: Tolerability / lethality of iv injection in piglets; format: in vivo, piglet
Protocol: (§1) An in vivo-experiment was performed on one 8 week-old normal piglet (body weight: 17 kg). The piglet was anaesthesized with 5% Isoflurane, 0.7 L/min N2O and 2.0 L/min O2 for 20-30 minutes, when kf111 was injected, or blood was taken from the ear vein, respectively. The compound injected iv at a concentration of 27 g kf111/100 ml water (volume injected: 63 ml, pH 6.5, containing 17 g kf111=1 g/1 kg body weight) was not harmful to the animal, when injected into the piglet's ear vein over at least 10 minutes.
(§2) Iv injection of 1 g kf111/kg body weight caused a significant right shift of the P50-value (up to 20%) in porcine RBCs. An almost saturated kf111 solution, pH 6.7, was injected intravenously into two piglets (both of ˜18 kg body weight) (27 g kf111/100 ml=1.5 g/kg body weight) over 20 minutes.

[7] = system: human whole blood; assay: In vitro P50 in whole blood after incubation with effector; format: cell-based; conditions: effector 60 mM
Protocol: (§3) As usual, pH's for the compound-solutions were adjusted to ˜7.0, osmolarities for both solutions were determined (325-373 mOsM) prior to effectors, and whole blood volumes at 1:1 ratios were incubated.

[8] = system: mouse whole blood; assay: as above; format: cell-based; conditions: effector 60 mM
Protocol: as §3

[9] = system: pig whole blood; assay: as above; format: cell-based; conditions: effector 60 mM
Protocol: as §3

[10] = system: porcine RBCs; assay: Intravenous injection in piglets, P50 of blood; format: in vivo, piglet; conditions: iv injection of 1 g/kg body weight; maximum
Protocol: as §1, §2

[11] = system: circulating RBC; assay: P50 shift of circulating RBC after (intraperitoneal) injection in mice; conditions: for P50 Shift % 2 h, Mean +/− SD / P50 Shift % 24 h, Mean +/− SD: 5 animals; for P50 Shift % 2 h / P50 Shift % 24 h: single animals
[12] = Blood counts and serum electrolytes of iv treated piglets; format: in vivo, piglet
From the text: Blood from the 2 piglets, having received kf111 (1 g/kg body weight) was collected before injection, 2 hrs after, and daily over a period of 14 days after injection, in order to assess any differences in the blood counts of treated and non treated piglets. The following conclusions for piglets having received 1 g kf111 per kg body weight can be drawn: • 1. […] Increasing numbers of reticulocytes were counted in blood samples of the injected animals taken 5-14 days after injection (up to 3.0% on day 14). • 4.
Blood was taken from the heart of the dead animals for the determination of blood counts as well as the amount of sodium, potassium and calcium in the sera. All numbers of blood cells (hematocrit, white blood cells etc.) were halved. The amount of potassium and calcium was normal, while sodium was doubled (before injection: 120-140 mmol/L; after injection: 245 mmol/L). Apparently, the large amount of sodium in kf111 (6 Na^+/molecule) caused the death of the animals. It appears that up to 1 g kf111 per kg body weight can be injected iv, (if injected slowly) without harmful effects for the animals. […] The piglets were thirsty after the treatment. *a second piglets was injected with kf111 at this concentration, after 2 piglets had died after iv injection of 1.2 g kf111 (or even more) per kg body weight. • 2. Higher amounts of kf111, injected via iv, killed the animals. • 3. A 1 g kf111 per kg body weight—injection is necessary to cause a significant right shift of the P50 value (up to 20%). • 4. […] In piglets having received 1 g of kf111/kg body weight, a tendency to the decrease in hematocrit was observed. • 6. […] The number of reticulocytes decreased slightly 24 to 72 hrs after injection (from 1.5% to 0.5%). Starting with day 3 after injection of the allosteric effector, the number of reticulocytes increased by about 3% for a period of 14 days.

[13] = system: whole blood; assay: In vitro incubation of whole blood of three species, summary statements; format: cell-based, human, mouse and pig
Protocol: as §3

[14] = system: C57BL/6 mice; assay: Tolerability of intraperitoneal injection in mice; format: in vivo
[15] = system: C57BL/6 mice; assay: Tolerability of oral administration; format: in vivo; conditions: 27 mM in drinking water, 4 days
Protocol: The sodium salt of the tri-pyrophosphate derivative of IHP (kf111) was dissolved in drinking (not deionized) water at a 20 g/L-concentration (=27 mM) and offered for drinking ad libitum. As in all experiments performed before, pH was adjusted to ˜7.0.
Twelve C57BL/6 mice drank kf111 over 4 days ([…]). Three control mice drank either pure water, or a solution of IHP (inositol hexaphosphate) at the same concentration and pH as kf111 (4 mice). […] Blood was collected from the tail vein of the 19 C57BL/6 mice on day 0 (before treatment started), 1, 2, 4, 6, 7, 8, 10, 11 and 12, in order to measure P50 values.

[16] = Toxicity, general statements on the biological experiments; format: in vivo
[17] = dead piglets after lethal iv dose

Compound: O=P(O)(O)O[C@H]1[C@H](OP(=O)(O)O)[C@@H](OP(=O)(O)O)[C@H](OP(=O)(O)O)[C@@H](OP(=O)(O)O)[C@H]1OP(=O)(O)O [IHP, inositol hexaphosphate, reference compound]
- RBC × 10^6/mm3 [1]: 10.77 × 10^6/mm3
- P50 7 d % ([2]; P50 shift on day 7, single mice, oral 27 mM for 4 days): 3%
- P50 10 d % ([2]; oral 27 mM for 4 days): 0%
- shift of the ODC ([2]; oral in drinking water, same concentration as kf111): absence of shift
- P50 of IHP-modified RBCs [3]: approximately 50 torr
- equiv of ammonium ions required to reach Kos(in serum) of 1 [4]: 8 equiv
- RBC × 10^6/mm3 [5]: 9.6 × 10^6/mm3

Compound: O=P1([O-])OP(=O)([O-])O[C@H]2[C@H](O1)[C@@H]1OP(=O)([O-])OP(=O)([O-])O[C@@H]1[C@H]1OP(=O)([O-])OP(=O)([O-])O[C@H]21.[Na+].[Na+].[Na+].[Na+].[Na+].[Na+] [kf111, Hexasodium Salt of Myo-inositol 1,6:2,3:4,5-Tripyrophosphate]
- harmfulness of iv injection ([6]; 1 g/kg body weight, injected slowly (at least 10 min)): not harmful
- outcome of iv injection of almost saturated solution ([6]; 27 g/100 ml, 1.5 g/kg planned over 20 minutes, two piglets): Both piglets died
- dose that can be injected iv without harmful effects ([6]; if injected slowly): up to 1 g kf111 per kg body weight
- dose received at which piglets died ([6]; iv, saturated solution): < 1.3 g/kg body weight
- P50 Increase % ([7]; 1:1): 39%
- P50 mm Hg ([7]; 1:1, control 22.1): 30.8 mm Hg
- P50 Increase % ([8]; 1:1): 29%
- P50 mm Hg ([8]; 1:1, control 36.7): 47.4 mm Hg
- P50 Increase % ([9]; 1:1): 40%
- P50 mm Hg ([9]; 1:1, control 32.2): 45.2 mm Hg
- RBC × 10^6/mm3 [1]: 9.35 × 10^6/mm3 and 8.60 × 10^6/mm3 and 8.95 × 10^6/mm3 and 8.88 × 10^6/mm3 and 8.70 × 10^6/mm3 and 8.73 × 10^6/mm3 and 7.65 × 10^6/mm3 and 7.80 × 10^6/mm3
- right shift of the P50-value [10]: up to 20%
- right shift of the ODC of circulating RBC, % of the basal value ([11]; after ip injection): 31%
- P50 Shift % 2 h, Mean +/− SD ([11]; ip 45 mM): 11.8 +/− 1.16%
- P50 Shift % 2 h ([11]; ip 45 mM): 13% (2×) and 10% and 12% and 11%
- P50 Shift % 24 h, Mean +/− SD ([11]; ip 45 mM): 13.6 +/− 1.02%
- P50 Shift % 24 h ([11]; ip 45 mM): 14% (2×) and 12% and 13% and 15%
- P50 Shift % 2 h, Mean +/− SD ([11]; ip 60 mM): 16.9 +/− 3.48%
- P50 Shift % 2 h ([11]; ip 60 mM): 12% and 14% and 17% and 21% and 20.5%
- P50 Shift % 24 h, Mean +/− SD ([11]; ip 60 mM): 17.2 +/− 2.1%
- P50 Shift % 24 h ([11]; ip 60 mM): 14% and 16% and 17% and 20% and 19%
- P50 Shift % 2 h, Mean +/− SD ([11]; ip 120 mM): 26.0 +/− 2.28%
- P50 Shift % 2 h ([11]; ip 120 mM): 28% and 29% and 24% and 26% and 23%
- P50 Shift % 24 h, Mean +/− SD ([11]; ip 120 mM): 24.8 +/− 2.7%
- P50 Shift % 24 h ([11]; ip 120 mM): 28% (2×) and 22% (2×) and 24%
- P50 Shift % 2 h, Mean +/− SD ([11]; ip 150 mM): 27.0 +/− 1.78%
- P50 Shift % 2 h ([11]; ip 150 mM): 26% (2×) and 28% and 30% and 25%
- P50 Shift % 24 h, Mean +/− SD ([11]; ip 150 mM): 25.8 +/− 2.78%
- P50 Shift % 24 h ([11]; ip 150 mM): 25% and 26% and 31% and 24% and 23%
- P50 10 d % ([2]; oral 27 mM for 4 days): 10% and 6% and 12% and 16% and 8% and 11% and 9%
- right shift of P50 ([2]; oral, 20 g/L (27 mM) in drinking water over 4 days, maximum): up to 31%
- number of other cells such as white blood cells ([12]; 1 g/kg iv): no major differences
- reticulocytes ([12]; 1 g/kg iv, day 14 (samples 5-14 days after injection), maximum): up to 3.0%
- reticulocytes after decrease ([12]; 1 g/kg iv, first 3 days (24 to 72 hrs) after injection): 0.5%
- hematocrit and number of RBC ([12]; 1 g/kg iv, first days after injection): slight decrease
- increase of the number of reticulocytes ([12]; 1 g/kg iv, starting with day 3, for a period of 14 days): about 3%
- amount of potassium and calcium in sera [12, 17]: normal
- numbers of blood cells (hematocrit, white blood cells etc.) [12, 17]: halved
- sodium in sera after injection ([12]; dead piglets, before injection 120-140 mmol/L): 245 mmol/L
- lysis of RBCs ([13]; in vitro incubation with whole blood): never occurred; also recorded: no lysis of RBCs was observed
- right shift in the Hb-O2 dissociation curve, all blood samples ([13]; whole blood of human, mouse and pig, 60 mM): up to 40%
- tolerability in mice ([14]; concentration of (up to) 120 mM): well tolerated
- tolerability in mice ([14]; ip, concentrations up to 150 mM): well tolerated
- harmfulness when applied orally [15]: not harmful
- toxicity ([16]; even in a concentration of 160 mM): no toxicity
- toxicity / tolerability ([16]; general statement): no toxicity and excellent tolerability
- RBC × 10^6/mm3 [5]: 6.60 × 10^6/mm3 and 5.73 × 10^6/mm3 and 6.35 × 10^6/mm3 and 5.64 × 10^6/mm3 and 5.45 × 10^6/mm3 and 8.76 × 10^6/mm3 and 7.70 × 10^6/mm3 and 6.54 × 10^6/mm3
- number of RBC ([5]; mice having ingested the compound for 4 days): reduced significantly
- number of white blood cells ([5]; treated vs control groups): no major differences
